Reference: patent publication US4232006A, “Antibiotic W-10 complex, antibiotic 20561 and antibiotic 20562 as antifungal agents” (Schering Corporation, priority 1978, dated 1980)
Converted amounts (≈) assume the structure as drawn. Numbered stars: 1 amine (or outer) side, 2 acyl side, 3 side chain; on linkers, the order of the positions; unused ones are H or OH. Bridge positions count the residues as written; N and C are the ends. Square brackets hold non-standard residues; d marks the D form. Peptide text beside a SMILES is read from it. * marks the point of attachment. NMeT = CN[CH](C(=O)O)[CH](C)O; X1 = CCCCCCCCCCCC(O)CC(=O)*; X2 = CC=C(N[*:1])C(=O)[*:2]; X3 = OCC1OC(*)C(O)C(O)C1O

Tests used:
Aeromonas sp. W-10 = test: Resistance of Aeromonas sp. W-10 to antibacterial agents (physiological characteristics); format: cell-based
Text: Based upon the physiological characteristics, morphology and the guanine plus cytosine content of isolated DNA, we have classified the organism as a novel member of the genus Aeromonas. We have designated the bacterium Aeromonas sp. W-10, sometimes referred to herein as Aeromonas W-10, and have deposited the microorganism with the United States Department of Agriculture, Northern Utilization Research and Development Division (NRRL), Peoria, Illinois, from whom subcultures are available. The microorganism has been assigned the numerical designation NRRL B-11053. […]. When observed microscopically, Aeromonas sp. W-10 is seen to be a non-spore forming, gram-negative rod approximately 0.5 to 1.0×1.0-1.5 microns. It occurs singly and is motile by means of a single polar flagellum. The organism is facultatively anaerobic, oxidase positive, capable of reducing nitrates to nitrites, insensitive to the vibriostatic compound 2 4-diamino-6,7-diisopropylpteridine (0/129) with a guanine-cytosine content of DNA at 61%. According to Bergy's Manual of Determinative Bacteriology, 8th Edition, the organism is, on the basis of the data set forth, classified as a member of the genus Aeromonas.
The growth and physiological characteristics of Aeromonas sp. All observations were made after seven (7) days of incubation at 28° C. […]

Candida albicans [1] = test: In vivo protection (PD50) of mice intravenously infected with Candida albicans; design: species or system male CF1 mice; conditions: single dose one hour after i.v. infection, determined 48 hours after infection
Protocol: The in vivo activity of Antibiotic 20561, Antibiotic 20562 and the Antibiotic W-10 complex are obtained using male CF1 mice (Carworth Famrs) given a single oral or subcutaneous dose one hour after intraveneous infection with sufficient Candida albicans to kill 80% of the infected mice in 48 hours.
PD50 values were determined 48 hours after infection and are as follows: […]

[2] = Toxicity (LD50), oral or subcutaneous administration; format: in vivo
[3] = tested on: Trichophyton mentagrophytes; test: In vivo topical activity against Trichophyton mentagrophytes skin infection in guinea pigs; conditions: 1% suspension in polyethylene glycol 400, topical twice daily for ten days from three days after infection
Protocol: The skin of fifteen guinea pigs is abraided and infected with a standard culture of Trichophyton mentagropytes. The infected animals are then separated into three groups containing five animals each. Suspensions containing 1% of the respective antibiotics in polyethylene glycol 400 are prepared. Two of the three groups are treated topically, twice daily for ten days commencing three days after infection. The third group (controls) remained untreated throughout the test. All of the animals are tested for infection by culture and observed for skin lesions for a total of 21 days.

[4] = tested on: Saccharomyces cerevisiae ATCC 9763; test: Agar diffusion potency assay against standard solution of Antibiotic 20562; format: cell-based
Protocol: Peak Antibiotic W-10 Complex production is determined by periodic sampling of the fermentation mixture and by subjecting the samples to an agar diffusion assay using Saccharomyces cerevisiae ATCC 9763 as the test organism. The broths are assayed against a standard solution of Antibiotic 20562 having an assigned potency of 1000 mcg/mg. The standard solution is diluted with 10% potassium phosphate buffer (pH 6.0) to make solutions having antibiotic concentrations of 3.2, 4.0, 5.0, 6.25 and 7.8 mcg/ml. The assay is performed substantially as set forth in the Federal Register, Title 21, Chapter 436.105.

Candida albicans [5] = test: MIC in vitro in Sabourraud dextrose broth against strains of Candida albicans; format: cell-based
Protocol: Antibiotic 20562 was tested in vitro in Sabourraud dextrose broth against strains of Candida albicans, the Minimum Inhibitory Concentration (MIC) being set forth in Table IV below: […]

[6] = tested on: Candida albicans (Wisconsin strain); test: Topical in vivo activity against Candida albicans intravaginal infection in hamsters
Protocol: Using a culture of Candida albicans (Wisconsin strain), in Sabourrauds dextrose broth, infect intravaginally, five groups of six female hamsters. Forty-eight and seventy-two hours after infection, make smears of the infected animals and culture the smears. […] (96 hours after infection), make additional smears, culture and commence treatment. One group of six animals (controls) receives no treatment and, therefore, remains infected throughout the test. The remaining four groups of animals are treated with Antibiotic 20562, as 1%, 5%, 10% and 15% suspensions, respectively, the vehicle for suspension being administered on a cotton swab. At the end of the three day treatment the 1%, 5% and 10% groups are 60% cured, the 15% group is completely (100%) cured.

[7] = products of Example 2 step B, precipitated after silica gel chromatography
[8] = products of Example 3 steps C and D
[9] = separated antibiotics, crystalline solids from methanol, vs standard of 1000 mcg/mg

Structure (SMILES) | PD50 (Candida albicans [1]; oral administration) [mg/kg] | PD50 (Candida albicans [1]; subcutaneous administration) [mg/kg] | LD50 ([2]; oral administration) [mg/kg] | LD50 ([2]; subcutaneous administration) [mg/kg] | Days to become negative: Culture [3] [days] | Days to become negative: Lesion [3] [days] | Assay (potency by agar diffusion) [4, 7] [µg/mg] | Assay (potency by agar diffusion) [4, 8] [µg/mg] | Assay (potency by agar diffusion) [4, 9] | further results
CC(C)c1nc2nc(N)nc(N)c2nc1C(C)C [0/129, 2 4-diamino-6,7-diisopropylpteridine] | – | – | – | – | – | – | – | – | – | sensitivity of the organism to the vibriostatic compound (Aeromonas sp. W-10): insensitive
CC=C(NC(=O)CC(O)CCCCCCCCCCC)C(=O)NC1C(=O)NC(C(C)O)C(=O)NC(Cc2ccc(O)cc2)C(=O)NC(=CC)C(=O)NC(CCC(N)=O)C(=O)NCC(=O)N(C)C(C(C)O)C(=O)NC(Cc2cnc[nH]2)C(=O)OC1C (centres unmarked) [Antibiotic 20561] (X1-[X2]TTY[X2]QG[NMeT]H; ester 2-C; configuration not given here) | 25 | 4 | 1000 | > 1000 | 4.8 | 6.3 | 800 | 800 | about 800 mcg/mg | –
CC=C(NC(=O)CC(O)CCCCCCCCCCC)C(=O)NC1C(=O)NC(C(C)O)C(=O)NC(Cc2ccc(O)cc2)C(=O)NC(=CC)C(=O)NC(CCC(N)=O)C(=O)NCC(=O)N(C)C(C(C)OC2OC(CO)C(O)C(O)C2O)C(=O)NC(Cc2cnc[nH]2)C(=O)OC1C (centres unmarked) [Antibiotic 20562] (X1-[X2]TTY[X2]QG[NMeT](X3)H; ester 2-C; configuration not given here) | 25 | 4 | 800 | 600 | 5.8 | 9.0 | 800 | 1000 | about 1000 mcg/mg | MIC (Candida albicans [5]; Candida albicans strain 29): 0.075 µg/mL (≈ 0.0552 µM); MIC (Candida albicans [5]; Candida albicans strain Bevan): 0.075 µg/mL (≈ 0.0552 µM); MIC (Candida albicans [5]; Candida albicans strain Burke): 0.075 µg/mL (≈ 0.0552 µM); MIC (Candida albicans [5]; Candida albicans strain Collins): 0.075 µg/mL (≈ 0.0552 µM); MIC (Candida albicans [5]; Candida albicans strain Fix): 0.075 µg/mL (≈ 0.0552 µM); MIC (Candida albicans [5]; Candida albicans strain Lush): 0.075 µg/mL (≈ 0.0552 µM); MIC (Candida albicans [5]; Candida albicans strain Merkel): 0.075 µg/mL (≈ 0.0552 µM); MIC (Candida albicans [5]; Candida albicans strain Newcomb): 0.075 µg/mL (≈ 0.0552 µM); MIC (Candida albicans [5]; Candida albicans strain No. 1): 0.075 µg/mL (≈ 0.0552 µM); MIC (Candida albicans [5]; Candida albicans strain Raub): 0.075 µg/mL (≈ 0.0552 µM); MIC (Candida albicans [5]; Candida albicans strain Sperk): 0.075 µg/mL (≈ 0.0552 µM); MIC (Candida albicans [5]; Candida albicans strain Wisconsin): 0.075 µg/mL (≈ 0.0552 µM); cured at end of three day treatment ([6]; 1% suspension): 60%; cured at end of three day treatment ([6]; 5% suspension): 60%; cured at end of three day treatment ([6]; 10% suspension): 60%; cured at end of three day treatment ([6]; 15% suspension): 100%
